Source: patent publication US6451736B1, “Substituted aromatic thiocarboxylic acid amides and their use as herbicides” (Bayer Aktiengesellschaft, priority 1994, dated 2002)

Key:
Assay type in all cases: in vivo
Wheat [1] = assay: Post-emergence test/greenhouse; conditions: Table C, after three weeks
Method: (§1) To produce a suitable preparation of active compound, 1 part by weight of active compound is mixed with the stated amount of solvent, the stated amount of emulsifier is added and the concentrate is diluted with water to the desired concentration.
(§2) Test plants which have a height of 5-15 cm are sprayed with the preparation of active compound in such a way as to apply the particular amounts of active compound desired per unit area. After three weeks, the degree of damage to the plants is rated in % damage in comparison to the development of the untreated control.
(§3) 0%=no action (like intreated control)

Maize [2] = assay: Post-emergence test/greenhouse; conditions: Table C, after three weeks
Method: as §1, §2, §3

Veronica = assay: Post-emergence test/greenhouse; conditions: Table C, after three weeks
Method: as §1, §2, §3

Solanum [3] = assay: Post-emergence test/greenhouse; conditions: Table C, after three weeks
Method: as §1, §2, §3

Amaranthus [4] = assay: Post-emergence test/greenhouse; conditions: Table C, after three weeks
Method: as §1, §2, §3

Abuthilon [5] = assay: Post-emergence test/greenhouse; conditions: Table C, after three weeks
Method: as §1, §2, §3

Chenopodium [6] = assay: Post-emergence test/greenhouse; conditions: Table C, after three weeks
Method: as §1, §2, §3

Wheat [7] = assay: Pre-emergence test/greenhouse; conditions: Table B, after three weeks
Method: as §1
(§4) Seeds of the test plants are sown in normal soil and, after 24 hours, watered with the preparation of active compound. It is expedient to keep constant the amount of water per unit area. The concentration of the active compound in the preparation is of no importance, only the amount of active compound applied per unit area being decisive. After three weeks, the degree of damage to the plants is rated in % damage in comparison to the development of the untreated control. The figures denote:
(§5) 0%=no action (like untreated control)

Matricaria = assay: Pre-emergence test/greenhouse; conditions: Table B, after three weeks
Method: as §1, §4, §5

Maize [8] = assay: Pre-emergence test/greenhouse; conditions: Table B, after three weeks
Method: as §1, §4, §5

Solanum [9] = assay: Pre-emergence test/greenhouse; conditions: Table B, after three weeks
Method: as §1, §4, §5

Portulaca = assay: Pre-emergence test/greenhouse; conditions: Table B, after three weeks
Method: as §1, §4, §5

Amaranthus [10] = assay: Pre-emergence test/greenhouse; conditions: Table B, after three weeks
Method: as §1, §4, §5

Abuthilon [11] = assay: Pre-emergence test/greenhouse; conditions: Table B, after three weeks
Method: as §1, §4, §5

Chenopodium [12] = assay: Pre-emergence test/greenhouse; conditions: Table B, after three weeks
Method: as §1, §4, §5

| SMILES | degree of damage, Wheat (Wheat [1]; 8 g/ha) [%] | degree of damage, Maize (Maize [2]; 8 g/ha) [%] | degree of damage, Veronica (Veronica; 8 g/ha) [%] | degree of damage, Solanum (Solanum [3]; 8 g/ha) [%] | degree of damage, Amaranthus (Amaranthus [4]; 8 g/ha) [%] | degree of damage, Abuthilon (Abuthilon [5]; 8 g/ha) [%] | degree of damage, Chenopodium (Chenopodium [6]; 8 g/ha) [%] | degree of damage, Wheat (Wheat [7]; 60 g/ha) [%] | degree of damage, Matricaria (Matricaria; 60 g/ha) [%] | degree of damage, Maize (Maize [8]; 60 g/ha) [%] | degree of damage, Solanum (Solanum [9]; 60 g/ha) [%] | degree of damage, Portulaca (Portulaca; 60 g/ha) [%] | degree of damage, Amaranthus (Amaranthus [10]; 60 g/ha) [%] | degree of damage, Abuthilon (Abuthilon [11]; 60 g/ha) [%] | degree of damage, Chenopodium (Chenopodium [12]; 60 g/ha) [%] | degree of damage, Wheat (Wheat [7]; 30 g/ha) [%] | degree of damage, Matricaria (Matricaria; 30 g/ha) [%] | degree of damage, Maize (Maize [8]; 30 g/ha) [%] | degree of damage, Solanum (Solanum [9]; 30 g/ha) [%] | degree of damage, Portulaca (Portulaca; 30 g/ha) [%] | also measured |
| --- | --- | --- | --- | --- | --- | --- | --- | --- | --- | --- | --- | --- | --- | --- | --- | --- | --- | --- | --- | --- | --- |
| CCS(=O)(=O)Nc1cc(N2C(=O)C(C)=C(C)C2=O)c(F)cc1C(N)=S [Example 22] | – | – | – | – | – | – | – | – | – | – | – | – | – | – | – | – | – | – | – | – | degree of damage, Wheat (Wheat [1]; 30 g/ha): 15%; degree of damage, Maize (Maize [2]; 30 g/ha): 0%; degree of damage, Veronica (Veronica; 30 g/ha): 20%; degree of damage, Solanum (Solanum [3]; 30 g/ha): 100%; degree of damage, Amaranthus (Amaranthus [4]; 30 g/ha): 100%; degree of damage, Abuthilon (Abuthilon [5]; 30 g/ha): 100%; degree of damage, Chenopodium (Chenopodium [6]; 30 g/ha): 40%; degree of damage, Wheat (Wheat [7]; 250 g/ha): 0%; degree of damage, Matricaria (Matricaria; 250 g/ha): 100%; degree of damage, Maize (Maize [8]; 250 g/ha): 20%; degree of damage, Solanum (Solanum [9]; 250 g/ha): 100%; degree of damage, Portulaca (Portulaca; 250 g/ha): 95%; degree of damage, Amaranthus (Amaranthus [10]; 250 g/ha): 100%; degree of damage, Abuthilon (Abuthilon [11]; 250 g/ha): 100%; degree of damage, Chenopodium (Chenopodium [12]; 250 g/ha): 100% |
| CCOc1cc(-n2nc3n(c2=O)CCCC3)c(F)cc1C(N)=S [Example 12] | 10 | 30 | 100 | 100 | 100 | 100 | 95 | 20 | 95 | 0 | 70 | 95 | 70 | 70 | 100 | – | – | – | – | – | – |
| CCS(=O)(=O)Nc1cc(-n2nc(C(F)F)n(C)c2=O)c(F)cc1C(N)=S [Example 9] | – | – | – | – | – | – | – | 0 | 95 | 0 | 100 | 90 | 100 | 100 | 100 | – | – | – | – | – | degree of damage, Wheat (Wheat [1]; 60 g/ha): 10%; degree of damage, Maize (Maize [2]; 60 g/ha): 30%; degree of damage, Veronica (Veronica; 60 g/ha): 100%; degree of damage, Solanum (Solanum [3]; 60 g/ha): 100%; degree of damage, Amaranthus (Amaranthus [4]; 60 g/ha): 100%; degree of damage, Abuthilon (Abuthilon [5]; 60 g/ha): 100%; degree of damage, Chenopodium (Chenopodium [6]; 60 g/ha): 100% |
| CCS(=O)(=O)Nc1cc(-n2nc(C(F)(F)F)n(C)c2=S)c(F)cc1C(N)=S [Example 31] | 0 | 70 | 100 | 100 | 100 | 100 | 90 | 0 | 100 | 0 | 100 | 100 | 100 | 100 | 100 | – | – | – | – | – | – |
| C#CC(C)Oc1cc(-n2nc(C(F)(F)F)n(C)c2=O)c(F)cc1C(N)=S (stereo not drawn) [Example 32] | – | – | – | – | – | – | – | – | – | – | – | – | – | – | – | 10 | 100 | 0 | 100 | 95 | degree of damage, Wheat (Wheat [1]; 4 g/ha): 15%; degree of damage, Maize (Maize [2]; 4 g/ha): 30%; degree of damage, Veronica (Veronica; 4 g/ha): 100%; degree of damage, Solanum (Solanum [3]; 4 g/ha): 100%; degree of damage, Amaranthus (Amaranthus [4]; 4 g/ha): 100%; degree of damage, Abuthilon (Abuthilon [5]; 4 g/ha): 100%; degree of damage, Chenopodium (Chenopodium [6]; 4 g/ha): 95%; degree of damage, Amaranthus (Amaranthus [10]; 30 g/ha): 100%; degree of damage, Chenopodium (Chenopodium [12]; 30 g/ha): 100% |
| CCS(=O)(=O)Nc1cc(N2C(=O)C3=C(CCCC3)C2=O)c(F)cc1C(N)=S [Example 23] | – | – | – | – | – | – | – | 0 | 100 | 0 | 70 | 95 | 70 | 95 | 95 | – | – | – | – | – | degree of damage, Wheat (Wheat [1]; 30 g/ha): 0%; degree of damage, Maize (Maize [2]; 30 g/ha): 50%; degree of damage, Veronica (Veronica; 30 g/ha): 100%; degree of damage, Solanum (Solanum [3]; 30 g/ha): 100%; degree of damage, Abuthilon (Abuthilon [5]; 30 g/ha): 95%; degree of damage, Chenopodium (Chenopodium [6]; 30 g/ha): 90% |
| CCS(=O)(=O)Nc1cc(-n2nc(C3CC3)n(C)c2=O)c(F)cc1C(N)=S [Example 13] | – | – | – | – | – | – | – | 0 | 70 | 0 | 100 | 90 | 100 | 100 | 100 | – | – | – | – | – | degree of damage, Wheat (Wheat [1]; 15 g/ha): 0%; degree of damage, Maize (Maize [2]; 15 g/ha): 30%; degree of damage, Veronica (Veronica; 15 g/ha): 90%; degree of damage, Solanum (Solanum [3]; 15 g/ha): 100%; degree of damage, Amaranthus (Amaranthus [4]; 15 g/ha): 100%; degree of damage, Abuthilon (Abuthilon [5]; 15 g/ha): 95%; degree of damage, Chenopodium (Chenopodium [6]; 15 g/ha): 80% |
| CC(C)Oc1cc(-n2nc3n(c2=O)CCCC3)c(F)cc1C(N)=S [Example 17] | 10 | 10 | 100 | 100 | 100 | 100 | 95 | – | – | – | – | – | – | – | – | 0 | 100 | 0 | 100 | 100 | degree of damage, Amaranthus (Amaranthus [10]; 30 g/ha): 100%; degree of damage, Abuthilon (Abuthilon [11]; 30 g/ha): 100%; degree of damage, Chenopodium (Chenopodium [12]; 30 g/ha): 100% |
| COCCOCCOc1cc(-n2nc(C)n(C(F)F)c2=O)c(F)cc1C(N)=S [Example 51] | – | – | – | – | – | – | – | – | – | – | – | – | – | – | – | 0 | 95 | 20 | 100 | 100 | degree of damage, Wheat (Wheat [1]; 15 g/ha): 15%; degree of damage, Maize (Maize [2]; 15 g/ha): 60%; degree of damage, Veronica (Veronica; 15 g/ha): 100%; degree of damage, Solanum (Solanum [3]; 15 g/ha): 100%; degree of damage, Amaranthus (Amaranthus [4]; 15 g/ha): 100%; degree of damage, Abuthilon (Abuthilon [5]; 15 g/ha): 100%; degree of damage, Chenopodium (Chenopodium [6]; 15 g/ha): 70%; degree of damage, Abuthilon (Abuthilon [11]; 30 g/ha): 100%; degree of damage, Chenopodium (Chenopodium [12]; 30 g/ha): 100% |
